Experimental data from ChEMBL document CHEMBL1201862, “PubChem BioAssay data set” (2004).
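Briefly, cells in 96-well plates were exposed to five compound concentrations for 48 h, and endpoints were estimated by linear interpolation. The concentration for 50% growth inhibition is given as GI50.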 Calls of active or inactive are those of the source. No stated cut-off is given here; in the data, active = GI50 up to about 1.1 µM and inactive = higher.

Experiments:
Assay in all cases: growth of human tumour cells (NCI), 48 h
[1] = system: CCRF-CEM
[2] = system: HL-60
[3] = system: K562
[4] = system: SR
[5] = system: A498
[6] = system: A549
[7] = system: ACHN
[8] = system: BT-549
[9] = system: CAKI-1
[10] = system: COLO 205
[11] = system: DU-145
[12] = system: EKVX
[13] = system: HCT-116
[14] = system: HCT-15
[15] = system: HT-29
[16] = system: IGROV-1
[17] = system: KM12
[18] = system: LOX IMVI
[19] = system: M14
[20] = system: MCF7
[21] = system: MDA-MB-231
[22] = system: MDA-MB-435
[23] = system: MDA-N
[24] = system: MOLT-4
[25] = system: Malme-3M
[26] = system: NCI-H226
[27] = system: NCI-H23
[28] = system: NCI-H460
[29] = system: NCI-H522
[30] = system: NCI/ADR-RES
[31] = system: OVCAR-3
[32] = system: OVCAR-5
[33] = system: OVCAR-8
[34] = system: PC-3
[35] = system: RPMI-8226
[36] = system: RXF 393
[37] = system: SF-268
[38] = system: SF-295
[39] = system: SF-539
[40] = system: SK-MEL-2
[41] = system: SK-MEL-5
[42] = system: SK-OV-3
[43] = system: SN12C
[44] = system: SNB-19
[45] = system: SW-620
[46] = system: TK-10
[47] = system: U-251
[48] = system: UACC-257
[49] = system: UACC-62
[50] = system: UO-31
[51] = system: 786-0
[52] = system: HCC 2998
[53] = system: HOP-62
[54] = system: HOP-92
[55] = system: OVCAR-4
[56] = system: SK-MEL-28
[57] = system: SNB-75
[58] = system: T47D

COC(=O)C1=CC(NC(=O)OCc2ccccc2)C(C(=O)c2ccccc2)C[C@@H]1Sc1ccccc1 (stereo partly drawn)
GI50 [1]: 1.47 µM (inactive) | GI50 [2]: 1.09 µM (active) | GI50 [3]: 2.19 µM (inactive) | GI50 [4]: < 0.01 µM (active)

Oc1ccc(-c2nc3cc(C(F)(F)F)ccc3s2)cc1
GI50 [5]: 18.2 µM (inactive) | GI50 [6]: 15.4 µM (inactive) | GI50 [7]: 14.5 µM (inactive) | GI50 [8]: 15.1 µM (inactive) | GI50 [9]: 15.7 µM (inactive) | GI50 [1]: 12.2 µM (inactive) | GI50 [10]: 18.8 µM (inactive) | GI50 [11]: 16.4 µM (inactive) | GI50 [12]: 1.77 µM (inactive) | GI50 [13]: 14.5 µM (inactive) | GI50 [14]: 10.1 µM | GI50 [2]: 18.1 µM (inactive) | GI50 [15]: 18.9 µM (inactive) | GI50 [16]: 11.2 µM (inactive) | GI50 [3]: 23.9 µM (inactive) | GI50 [17]: 13.1 µM (inactive) | GI50 [18]: 12.8 µM (inactive) | GI50 [19]: 15.5 µM (inactive) | GI50 [20]: 10.2 µM (inactive) | GI50 [21]: 14.2 µM (inactive) | GI50 [22]: 15.7 µM (inactive) | GI50 [23]: 17.7 µM (inactive) | GI50 [24]: 27.2 µM (inactive) | GI50 [25]: 13.6 µM (inactive) | GI50 [26]: 17.3 µM (inactive) | GI50 [27]: 15.9 µM (inactive) | GI50 [28]: 15.4 µM (inactive) | GI50 [29]: 12.6 µM (inactive) | GI50 [30]: 20 µM (inactive) | GI50 [31]: 15 µM (inactive) | GI50 [32]: 17.2 µM (inactive) | GI50 [33]: 15.6 µM (inactive) | GI50 [34]: 14.5 µM (inactive) | GI50 [35]: 16.7 µM (inactive) | GI50 [36]: 17.4 µM (inactive) | GI50 [37]: 16.1 µM (inactive) | GI50 [38]: 15 µM (inactive) | GI50 [39]: 19.5 µM (inactive) | GI50 [40]: 16.1 µM (inactive) | GI50 [41]: 14.9 µM (inactive) | GI50 [42]: 26 µM (inactive) | GI50 [43]: 17.7 µM (inactive) | GI50 [44]: 16.7 µM (inactive) | GI50 [4]: 15.8 µM (inactive) | GI50 [45]: 20.2 µM (inactive) | GI50 [46]: 18.8 µM (inactive) | GI50 [47]: 16.1 µM (inactive) | GI50 [48]: 18 µM (inactive) | GI50 [49]: 13.9 µM (inactive) | GI50 [50]: 13.6 µM (inactive)

C=C1C(=O)O[C@@H]2C(=O)[C@@H](C)CCC/C(C)=C/CC[C@@]3(C)O[C@@H]3C[C@@H]12
GI50 [51]: 21.3 µM (inactive) | GI50 [5]: > 100 µM (inactive) | GI50 [6]: > 100 µM (inactive) | GI50 [7]: 36.9 µM (inactive) | GI50 [9]: 19.9 µM (inactive) | GI50 [1]: 11.8 µM (inactive) | GI50 [10]: 24 µM (inactive) | GI50 [11]: 75.2 µM (inactive) | GI50 [12]: 37.7 µM (inactive) | GI50 [52]: > 100 µM (inactive) | GI50 [13]: 29.4 µM (inactive) | GI50 [14]: 20.2 µM | GI50 [2]: 16.5 µM (inactive) | GI50 [53]: > 100 µM (inactive) | GI50 [54]: 13.2 µM (inactive) | GI50 [15]: 14.3 µM (inactive) | GI50 [16]: 15.7 µM (inactive) | GI50 [3]: 16.4 µM (inactive) | GI50 [17]: 29.8 µM (inactive) | GI50 [18]: 18.9 µM (inactive) | GI50 [19]: 54.2 µM (inactive) | GI50 [20]: 36.3 µM (inactive) | GI50 [21]: 53.8 µM (inactive) | GI50 [22]: 51.3 µM (inactive) | GI50 [23]: 34.4 µM (inactive) | GI50 [24]: 28.6 µM (inactive) | GI50 [25]: 23 µM (inactive) | GI50 [26]: > 100 µM (inactive) | GI50 [27]: > 100 µM (inactive) | GI50 [29]: 12.1 µM (inactive) | GI50 [30]: 95.3 µM (inactive) | GI50 [31]: 46.3 µM (inactive) | GI50 [55]: 79.4 µM (inactive) | GI50 [32]: > 100 µM (inactive) | GI50 [33]: 68.5 µM (inactive) | GI50 [34]: 47 µM (inactive) | GI50 [35]: 18.6 µM (inactive) | GI50 [36]: 3.75 µM (inactive) | GI50 [38]: > 100 µM (inactive) | GI50 [39]: 25.2 µM (inactive) | GI50 [56]: > 100 µM (inactive) | GI50 [40]: > 100 µM (inactive) | GI50 [41]: 29.9 µM (inactive) | GI50 [42]: > 100 µM (inactive) | GI50 [43]: 40.3 µM (inactive) | GI50 [44]: > 100 µM (inactive) | GI50 [57]: 0.438 µM (active) | GI50 [45]: 20.8 µM (inactive) | GI50 [58]: 87.9 µM (inactive) | GI50 [46]: 27.7 µM (inactive) | GI50 [47]: 98.9 µM (inactive) | GI50 [48]: 56.8 µM (inactive) | GI50 [49]: 41.7 µM (inactive) | GI50 [50]: 92.7 µM (inactive)
